# Data: EPA's ToxValDB 9.5 (doi:10.2903/j.efsa.2015.4308)
# Legend:
# Aphidius rhopalosiphi = assay: LR50; higher = less toxic; details: not reported; mortality
# Typhlodromus pyri = assay: LR50; higher = less toxic; details: not reported; mortality
# Oncorhynchus mykiss = details: acute; duration: 96 hours; mortality
# Pimephales promelas = details: chronic/long-term; duration: 34 days; growth
# Folsomia candida = details: chronic/long-term
# Bibionidae = details: chronic/long-term
# Hypoaspis aculeifer = details: chronic/long-term
# Daphnia magna = details: chronic/long-term; duration: 21 days; reproduction
# Canidae = details: chronic; duration: 1 years; oral; F; Dog Other; body weight
# Oryctolagus sp. = details: reproduction developmental; body weight
smiles,measurement,setting,value
[Br-].[Br-].c1cc[n+]2c(c1)-c1cccc[n+]1CC2 [Diquat dibromide],LR50,Aphidius rhopalosiphi,3.2 g/ha
same,LR50,Typhlodromus pyri,2.9 g/ha
same,LC50,Oncorhynchus mykiss,6.1 µg/mL
same,LC50,"Tagia sp.; acute, duration: 14 days, mortality",94.3 mg/kg
same,NOEC,"Tagia sp.; chronic/long-term, duration: 8 weeks",37 mg/kg
same,NOEC,Pimephales promelas,120 µg/L
same,NOEC,Folsomia candida,9.38 mg/kg
same,LD50,"Rattus norvegicus; acute, M, mortality",214 mg/kg-day
same,NOAEL,"Rattus norvegicus; chronic, duration: 2 years, ophthalmoscopic examination",0.2 mg/kg-day
same,NOAEL,Rattus norvegicus; reproduction developmental,0.2 mg/kg-day
same,NOEC,Bibionidae; duration: 20 days,100 mg/kg
same,NOEC,Bibionidae; duration: 28 days,1270 µg/L
same,NOEC,Hypoaspis aculeifer,50 mg/kg
same,NOEC,Daphnia magna,125 µg/L
same,NOAEL,Canidae,0.5 mg/kg-day
same,NOAEL,Oryctolagus sp.,1 mg/kg-day
same,LD50,"Anas platyrhynchos; acute, oral, unspecified, mortality",71 mg/kg-day
same,NOAEL,Anas platyrhynchos; reproductive,0.5 mg/kg-day
